Laboratory results from patent US20260191933A1, “PHARMACEUTICAL COMBINATIONS AND USES THEREOF” (The University of Melbourne, priority 2022, published 2026).

Tests used:
ARC CSPG-ECM = test: Intranasal PZ6005 in obese mice: ARC CSPG-ECM expression (WFA immunostaining); type: in vivo, C57BL/6J mice; details: for ARC neurofibrosis / area and intensity of ARC CSPG-ECM: obese mice, intranasal 14 days, 1 or 5 mg/animal/day
Protocol: All image quantification was performed in Image J (NIH) software (NIH, MA). Raw images underwent background subtraction using a rolling ball algorithm to minimize background and any potential variance in tissue autofluorescence. To quantify area and intensity of the CSPG-ECM within each brain region (ARC, VMH or RSG cortex) images were thresholded and binarized to create a region of interest (ROI) mask of only the CSPG-ECM. For each brain area, CSPG-ECM ROI area (μm^2) and intensity (sum of all pixel intensities within the ROI) was calculated. This process was automated to minimise bias and to account for differences in brain nuclei size across multiple images. Brain nuclei were defined in accordance with the Paxinos and Franklin mouse brain atlas (http://labs.gaidi.ca/mouse-brain-atlas/). The area and intensity of CSPG-ECM within each region was normalised to the respective control.

[1] = system: 12-week-HFHS-diet-fed obese mice; test: Intranasal PZ6005 in obese mice: body weight, tissue-specific adiposity, fat mass; type: in vivo, C57BL/6J mice; details: for body weight lost at the end of the experiment: day 14
Protocol: Metabolic measurements were undertaken in the Melbourne Mouse Metabolic Phenotyping Platform (The University of Melbourne, Australia). Glucose tolerance tests were performed on 6 h fasted conscious mice respectively by injecting D-glucose (2 mg/g of lean body mass and 1 mg/g lean mass for db/db and HFHS+STZ mice) into the peritoneal cavity and measuring glucose in tail blood immediately before and at 15, 30, 45, 60, 90 and 120 min after injection using an Accu-Check glucometer (Roche, Germany). The areas under glucose excursion curves were determined and expressed as mmol/l×min. Fasted (12 h fast) plasma insulin or glucose levels were determined using a Rat/Mouse Insulin ELISA (EZRMI-13K, Merck Millipore, CA) or an Accu-Check glucometer respectively. The HOMA-IR was calculated using the equation [(glucose×insulin)/405]. Adiposity was measured using TD-NMR minispec (Bruker Optics Inc., Billerica, MA).

[2] = system: insulin receptor signalling within the ARC (pAKT); test: Intranasal PZ6005: ARC pAKT +ve. cells after insulin; type: in vivo, C57BL/6J mice; details: both doses, 14-day intranasal administration
Protocol: Mice were injected intraperitoneally with vehicle (PBS) or insulin (3 mU/g, i.p., Actrapid, Nova Nordisk, Denmark) and mice were transcardially perfused (as described above) 15 min with 10% neutral buffered formalin. The brains were post-fixed for 16 h on a rocking platform at RT and then kept for two days in 30% sucrose in PBS to cryoprotect the tissue, before freezing on dry ice. 30 μm sections were cut in the coronal plane throughout the entire rostral-caudal extent of the hypothalamus. Sections were pre-treated for 10 mins in 0.3% glycine, washed in PBS-T and incubated for 10 min in 0.03% SDS. Sections were then blocked in 5% blocking buffer for 1 h at RT and incubated for 48 h with rabbit anti-p-AKT (Ser-473) (1:300; #4060, Cell Signaling Technology, Beverly, MA) in 1% blocking buffer. Sections were then incubated in 5% blocking buffer containing either goat anti-rabbit Alexa Fluor 647 (ab150083, Abcam, Cambridge, UK) or biotinylated goat anti-rabbit (BA-1000, Vector Laboratories, CA, no sodium azide in blocking buffer). […]

[3] = system: 12-week HFHS fed obese mice; test: Example 21: glycaemic control in treatment and off-treatment phase (GTT, ITT, fasting glucose); type: in vivo, C57BL/6J male mice; details: treatment phase
From the text: Under 2-5% (v/v) isoflurane in 1 L/min oxygen, 12-week-HFHS-diet-fed and aged-matched chow-fed C57BL/6J male mice were implanted stereotaxically with guide cannulas in the right lateral ventricle (measurement of the coordinates were described as Chapter 2; Anterior/Posterior: −1.00 mm, Medial/Lateral: +0.20 mm). Guide cannulas were made by polishing the shaft of hypodermic needles (19 Gauge, Livingstone, Australia) to 1.00 mm long. The tip of the guide cannula was positioned 1.00 mm above the target region (1.00 mm ventral to the surface of the mouse skull). The mice were allowed 2-3 days for recovery before further experimental manipulations.
Awake 12-week-HFHS-diet-fed and aged-matched chow-fed C57BL/6J male mice were restrained by scruffing and inverted in the head-down position. […]
Glucose tolerance test was conducted on 6-hrs fasted conscious mice by injecting D-glucose (2 mg/g of lean body mass) into the peritoneal cavity and measuring blood glucose levels by taking tail blood immediately at 0, 15, 30, 60, 90 and 120 mins after injection using an Accu-Check glucometer (Roche, Germany). The area under the glucose excursion curve was determined and represented as mmol/L×min. Fasted (24 hr fast) glucose level was measured using an Accu-Check glucometer. […]

[4] = intranasal 1 mg/animal/day, 14 days
[5] = intranasal 1 mg treatment, 14 days

`CC(=O)NC1C(OC(C)=O)OC(COC(C)=O)[C@@H](F)C1OC(C)=O` (some centres unmarked) [PZ6005, per-O-acetylated-4-F-N-acetylglucosamine] was tested, and the “CSPG-ECM area lower than the controls” value (ARC CSPG-ECM; [4]) was 13.54±1.03%, the “CSPG-ECM intensity decreased by” value (ARC CSPG-ECM; [4]) was 15.94±7.17% and the “CSPG-ECM intensity reduced by” value (ARC CSPG-ECM; intranasal 5 mg/animal/day (highest dose), 14 days) was 30.16±1.52%. For the same molecule, the “CSPG-ECM area lower than the controls” value (ARC CSPG-ECM; intranasal 5 mg/animal/day, 14 days) was 13.59±4.09%, the “ARC neurofibrosis / area and intensity of ARC CSPG-ECM” value (ARC CSPG-ECM) was “robustly diminished” and the “ARC neurofibrosis / area and intensity of ARC CSPG-ECM” value (ARC CSPG-ECM; listed as fluorosamine) was “successfully attenuated”. For the same molecule, the “whole-body metabolic improvements observed with intracerebroventricular delivery” value ([1]; diet-induced obese mice, intranasal 14 days) was “recapitulated”, the “mass of epiWAT, BAT and liver” value [1, 5] was “decreased” and the “post-treatment fat mass decreased by, compared to the pre-treatment mass” value [1, 5] was 12.59±2.29%. The “body weight lost at the end of the experiment” value ([1]; intranasal 1 mg treatment) was 16.32±1.41%, the “day from which weight was robustly decreased” value ([1]; intranasal 1 mg/animal/day) was 7 days and the “post-treatment fat mass diminished by, compared to the pre-treatment mass” value ([1]; intranasal 5 mg treatment, 14 days) was 23.21±9.27%. The “day from which weight was robustly decreased” value ([1]; intranasal 5 mg/animal/day) was 3 days, the “body weight lost at the end of the experiment” value ([1]; intranasal highest dose (5 mg)) was 6.36±0.88% and the tissue mass ([1]; intranasal highest dose, 14 days) was “remarkedly reduced”. For the same molecule, the “ARC pAKT +ve. cells” value [2] was “robust increase” and the “glucose tolerance / glycaemic regulation” value [3] was “improved glucose tolerance”.
